In data set [1] the target is T1, PARP1 (Homo sapiens (Human), UniProt P09874). In words: PARP1 protein expression level in MDA-MB-436 cells. It is filed as cell-based. To be noted: 100 nM, 24 hours. Here is the method:
(§1) MDA-MB-436 cells were placed in a complete DMEM medium (supplemented with 15% FBS; 10 μg/mL Insulin; 16 μg/mL Glutathione and 1% penicillin-streptomycin solution), and cultured at 37° C. under CO2-free conditions. The cells in the logarithmic growth phase were collected, the cell density was adjusted to 2×10^5 cells/well with the culture medium, and the cells were added to a 6-well cell culture plate at a volume of 1 mL/well. The compound to be tested was prepared to 2-fold the final concentration, 1 mL of the compounds at different concentrations were added to administration wells, a medium containing 0.2% DMSO was added to control wells, and the plate was incubated for 24 hours at 37° C. The cells were collected into a 1.5 mL centrifuge tube, 25 μL of RIPA lysis buffer (containing 1× protease inhibitor cocktail) was added, and the cells were lysed on ice for 15 minutes and centrifuged at 12000 rpm/min at 4° C. for 10 minutes. The supernatant was collected and the protein content was determined using the BCA method. The protein sample to be tested was diluted to 0.8 mg/mL, PARP1 was detected using a fully automated protein expression quantitative analyzer (ProteinSimple), and the internal reference protein was 3-actin (both antibodies were from CST). The software (Compass for SW) of the fully automated protein expression quantitative analyzer was used to process the raw data and calculate the peak area and the PARP1 expression rate relative to the control group.
as §1, with “L-15” for “DMEM”, “mL/well and cultured overnight. On day 2, the” for “mL/well. The”, “group. DC50 values were calculated using a four-parameter non-linear fitting model in Graphpad 8.3.0 software.” for “group.”

Data set [2] is described as follows: Pharmacokinetic test in rats. It is filed as in vivo, SD rats. On the procedure: 7.1 Experimental animals: male SD rats, about 220 g, 6-8 weeks old, 6 rats/compound, purchased from Chengdu Ddossy Experimental Animals Co., Ltd.
7.2 Experimental design: on the day of the experiment, 12 SD rats were randomly grouped according to their body weights. The animals were fasted with water available for 12 to 14 h one day before the administration, and were fed 4 h after the administration.
Before and after the administration, 0.15 mL of blood was taken from the orbit of the animals under isoflurane anesthesia and placed in an EDTAK2 centrifuge tube. The blood was centrifuged at 5000 rpm and 4° C. for 10 min to collect plasma. The blood collection time points for the intravenous administration group and intragastric administration group were: 0, 5 min, 15 min, 30 min, 1 h, 2 h, 4 h, 6 h, 8 h, and 24 h. Before analysis and detection, all samples were stored at −80° C. The samples were analyzed quantitatively by LC-MS/MS.

The nature of data set [3]: Pharmacokinetic test in mice. It counts as in vivo, ICR mice. On the procedure:
8.1 Experimental animals: male ICR mice, 20 to 25 g, 18 mice/compound, purchased from Chengdu Ddossy Experimental Animals Co., Ltd.
8.2 Experimental design: on the day of the experiment, 36 ICR mice were randomly grouped according to their body weights. The animals were fasted with water available for 12 to 14 h one day before the administration, and were fed 4 h after the administration.
Before and after the administration, 0.06 mL of blood was taken from the orbit of the animals under isoflurane anesthesia and placed in an EDTAK2 centrifuge tube. The blood was centrifuged at 5000 rpm and 4° C. for 10 min to collect plasma. The blood collection time points for the intravenous group and intragastric administration group were: 0 min, 5 min, 15 min, 30 min, 1 h, 2 h, 4 h, 6 h, 8 h, and 24 h. Before analysis and detection, all samples were stored at −80° C. The samples were analyzed quantitatively by LC-MS/MS.

The test system of data set [4] is breast tumor cells MDA-MB-436. In words: MDA-MB-436 cell activity test (CellTiter-Glo, 7 days). It counts as cell-based, human. To be noted: Homo sapiens; for IC50: MDA-MB-436, 168 h, MDA-MB-436 cells, 7 days incubation, read-out: IC50 (nM), MDA-MB-436 cell inhibitory activity; for inhibition at 10 µM: MDA-MB-436, MDA-MB-436 cells, read-out: Max inh. % 10 μM. Here is the method:
Breast tumor cells MDA-MB-436 were purchased from ATCC, the culture medium was Leibovitz's L-15+10% FBS, and the cells were cultured in a CO2-free incubator at 37° C. On day 1, the cells in the exponential growth phase were collected, and the cell suspension was adjusted to 4000 cells/135 μL with the culture medium. 135 μL of the cell suspension was added to each well of a 96-well cell culture plate and incubated overnight. On day 2, compounds at different concentrations were added, and the plate was placed in the incubator and incubated for 7 days. After the culture was completed, according to operation instructions for a CellTiter-Glo kit (Promega, G7573), 75 μL of CTG solution, which was already pre-melted and equilibrated to room temperature, was added to each well, and the mixture was uniformly mixed for 2 minutes using a microplate shaker. The plate was placed at room temperature for 10 minutes, and then […] signal values were determined using an Envision2104 plate reader (PerkinElmer). The inhibition rate was calculated using formula (1), where RLUcompound was the readout of the drug treated group, RLUcontrol was the average value of the solvent control group, and RLUblank was the average value of the cell-free well. The IC50 value was calculated using GraphPad Prism software.
(In general: In ATP-based viability assays light output follows the ATP content of the culture.)

Data set [5] has as its target T1, PARP1. In words: PARP1 protein expression level in MDA-MB-231 cells. It counts as cell-based. To be noted: 24 hours. Here is the method: The cells were collected into a 1.5 mL centrifuge tube, 25 μL of RIPA lysis buffer (containing 1× protease inhibitor cocktail) was added, and the cells were lysed on ice for 15 minutes and centrifuged at 12000 rpm/min at 4° C. for 10 minutes. The supernatant was collected and the protein content was determined using the BCA method. […] DC50 values were calculated using a four-parameter non-linear fitting model in Graphpad 8.3.0 software.

The mark [6] stands for this setting: male, SD, rat, iv, i.v. 2.5 mg/kg, plasma.
Where [7] appears, read: male, ICR, mouse, iv, i.v. 2.5 mg/kg, plasma.

As a reminder, the AUC(0-t) is the area under the concentration-time curve up to a stated or last time point. A high value points to high exposure. The clearance is the volume of plasma or blood freed of the substance per unit of time. The low end stands for inefficient removal, the high end for efficient removal. The term IC50 denotes the concentration needed to halve the response being measured.

T1 sequence (P09874 whole entry): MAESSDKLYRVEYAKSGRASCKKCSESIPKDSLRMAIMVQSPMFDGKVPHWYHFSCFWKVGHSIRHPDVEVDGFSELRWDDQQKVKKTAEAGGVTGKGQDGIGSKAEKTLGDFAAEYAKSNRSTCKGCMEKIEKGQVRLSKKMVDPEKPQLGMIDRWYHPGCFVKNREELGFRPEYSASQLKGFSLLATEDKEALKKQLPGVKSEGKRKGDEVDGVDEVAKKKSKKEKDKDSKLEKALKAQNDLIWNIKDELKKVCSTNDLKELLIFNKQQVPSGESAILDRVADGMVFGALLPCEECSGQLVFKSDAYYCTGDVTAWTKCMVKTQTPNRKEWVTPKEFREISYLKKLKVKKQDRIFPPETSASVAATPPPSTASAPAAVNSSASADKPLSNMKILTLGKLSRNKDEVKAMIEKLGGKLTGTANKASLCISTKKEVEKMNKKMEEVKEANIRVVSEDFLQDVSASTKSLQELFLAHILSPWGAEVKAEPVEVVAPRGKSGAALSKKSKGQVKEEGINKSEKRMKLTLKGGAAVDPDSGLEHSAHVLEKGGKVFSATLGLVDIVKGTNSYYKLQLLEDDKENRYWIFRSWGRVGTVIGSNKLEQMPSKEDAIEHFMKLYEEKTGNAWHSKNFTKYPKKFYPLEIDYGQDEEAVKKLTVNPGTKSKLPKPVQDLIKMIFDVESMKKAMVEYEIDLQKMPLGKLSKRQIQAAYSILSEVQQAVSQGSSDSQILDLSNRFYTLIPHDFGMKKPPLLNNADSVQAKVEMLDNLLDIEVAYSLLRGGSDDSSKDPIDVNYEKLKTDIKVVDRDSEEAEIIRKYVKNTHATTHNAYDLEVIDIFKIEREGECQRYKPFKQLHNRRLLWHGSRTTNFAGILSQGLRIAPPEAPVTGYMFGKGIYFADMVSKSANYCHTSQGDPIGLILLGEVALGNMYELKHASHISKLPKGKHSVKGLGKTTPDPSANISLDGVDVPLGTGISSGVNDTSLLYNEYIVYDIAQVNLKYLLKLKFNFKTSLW

As to `CCc1cc2ncc(CN3CC=C(c4ccc(C(=O)Nc5cnn(C6CCN(c7ccc8c(c7)C(=O)N(C7CCC(=O)NC7=O)C8=O)CC6)c5)nc4)CC3)cc2[nH]c1=O` (stereo not shown) [Compound 58, N-(1-(1-(2-(2,6-dioxopiperidin-3-yl)-1,3-dioxoisoindolin-5-yl)piperidin-4-yl)-1H-pyrazol-4-yl)-1′-((7-ethyl-6-oxo-5,6-dihydro-1,5-naphthyridin-3-yl)methyl)-1′,2′,3′,6′-tetrahydro-[3,4′-bipyridine]-6-carboxamide], the “PARP1 degradation rate @ 100 nM” value at PARP1 [1] stood at 79.6%. Further, the pharmacokinetic characteristics result in data set [2] and in data set [3] was “good pharmacokinetic characteristics” in each case. The F in data set [2] (i.g. 10 mg/kg) amounted to 6.2%; in data set [3] (i.g. 10 mg/kg), 15.6%. Moreover, the AUC(0-t) stood at 51400 ng·h/mL in data set [2] (setting [6]); 12800 ng·h/mL in data set [2] (male, SD, rat, po, i.g. 10 mg/kg, plasma); 224000 ng·h/mL in data set [3] (setting [7]); 140000 ng·h/mL in data set [3] (male, ICR, mouse, po, i.g. 10 mg/kg, plasma). The clearance worked out at 0.713 mL/min/kg in data set [2] (setting [6]) and 0.0968 mL/min/kg in data set [3] (setting [7]). Also, the Vd in data set [2] (male, SD, rat, iv, i.v. 2.5 mg/kg, plasma, read-out: Vdss) amounted to 0.366 L/kg; in data set [3] (male, ICR, mouse, iv, i.v. 2.5 mg/kg, plasma, read-out: Vdss), 0.189 L/kg. In addition, in data set [4], the IC50 stood at 6 nM. In addition, the inhibition at 10 µM in data set [4] came out at 87.2%.
On PARP1 [5], `CCc1cc2ncc(CN3CCN(c4ccc(C(=O)NC5CN(C6CCN(c7ccc8c(c7)C(=O)N(C7CCC(=O)NC7=O)C8=O)CC6)C5)nc4)CC3)cc2[nH]c1=O` (stereo not shown) [Compound 5, N-(1-(1-(2-(2,6-dioxopiperidin-3-yl)-1,3-dioxoisoindolin-5-yl)piperidin-4-yl)azetidin-3-yl)-5-(4-((7-ethyl-6-oxo-5,6-dihydro-1,5-naphthyridin-3-yl)methyl)piperazin-1-yl)picolinamide] came in with a DC50 of 0.12 nM.
With `CCc1cc2ncc(CN3CCN(c4ccc(C(=O)NC5CC6(C5)CN(c5ccc7c(c5)C(=O)N(C5CCC(=O)NC5=O)C7=O)C6)nc4)CC3)cc2[nH]c1=O` (stereo not shown) [Compound 24, N-(2-(2-(2,6-dioxopiperidin-3-yl)-1,3-dioxoisoindolin-5-yl)-2-azaspiro[3.3]heptan-6-yl)-5-(4-((7-ethyl-6-oxo-5,6-dihydro-1,5-naphthyridin-3-yl)methyl)piperazin-1-yl)picolinamide], at PARP1 [1], the “PARP1 degradation rate @ 100 nM” value is reported as 76.2%. In data set [4], the IC50 was 38 nM and the inhibition at 10 µM worked out at 98.9%.
The corresponding values for `CCc1cc2ncc(CN3CCN(c4ccc(C(=O)NC5CCC(Oc6ccc7c(c6)C(=O)N(C6CCC(=O)NC6=O)C7=O)CC5)nc4)CC3)cc2[nH]c1=O` (stereo not shown) [Compound 66, N-((1r,4r)-4-((2-(2,6-dioxopiperidin-3-yl)-1,3-dioxoisoindolin-5-yl)oxy)cyclohexyl)-5-(4-((7-ethyl-6-oxo-5,6-dihydro-1,5-naphthyridin-3-yl)methyl)piperazin-1-yl)picolinamide] are 76.4%, 97.8 nM and 93.2%.

The record behind these values is US20250222116A1, “PARP-1 DEGRADATION AGENT AND USE THEREOF” (XIZANG HAISCO PHARMACEUTICAL CO., LTD., priority 2021, published 2025).
